Assay results reported in patent EP0623621A1, “Oxazabicyclo derivatives and their use as 5-HT4 receptor agonists” (NISSHIN FLOUR MILLING CO., LTD., priority 1993, dated 1994).

Tested on: longitudinal muscle with adherent myenteric plexus preparation
Experiment: Gastrointestinal motility promoting action: increase of electrically induced twitch response of isolated guinea pig ileum
Assay type: cell-based, guinea pigs
Details: compound at 10⁻⁵ M, transmural electrical stimulation (1 msec, 0.1 Hz)
Experimental: The gastrointestinal motility promoting action of the present compounds was tested by the following method.
Ileum was excised from guinea pigs to prepare longitudinal muscle with adherent myenteric plexus preparation (approximately 2 cm length). The preparation suspended in organ bath containing Krebs-Henselite solution aerated with a mixed gas (5% CO₂, 95% O₂) were subjected to transmural electrical stimulation (1 msec, 0.1 Hz). Consistent twitch response induced by electrical stimulation and increase of twitch response induced by compound were recorded with an isometric transducer. The compounds were dissolved in distilled water or DMSO and tested at concentration of 10⁻⁵ M. The result is shown in terms of percent increase (%) in the contraction height by the electrical stimulation after administration of the compound relative to the contraction height before administration of the compound. Compound of Example 10 16.1% Compound of Example 29 22.4%

SMILES | percent increase (%) in the contraction height by the electrical stimulation after administration of the compound relative to the contraction height before administration of the compound [%]
CC(C)=CCn1nc(C(=O)NC2CC3COCC(C2)N3Cc2ccc(F)cc2)c2ccccc21 (stereo not drawn) [Example 10, N-[endo-9-(p-fluorobenzyl)-3-oxa-9-azabicyclo[3.3.1]non-7-yl]-1-(3-methyl-2-butenyl)indazole-3-carboxamide] | 16.1
COc1cc(N)c(Cl)cc1C(=O)NC1CC2COCC(C1)N2Cc1ccc(F)cc1 (stereo not drawn) [Example 29, N-[endo-9-(p-fluorobenzyl)-3-oxa-9-azabicyclo[3.3.1]non-7-yl]-4-amino-5-chloro-2-methoxybenzamide] | 22.4
